Reference: ChEMBL document CHEMBL1909549, “Synthesis, pharmacophore modeling and in vitro activity of 10,11-dihydrodibenzo[b,f]oxepine-4-carboxamide derivatives as novel and potent antagonists of the prostaglandin EP4 receptor” (Bioorg Med Chem Lett, 2011)
Activity calls are given as the source filed them. No cut-off for these calls is given here.

Legend:
Cytochrome P450 2D6 = Cytochrome P450 2D6 (Homo sapiens, UniProt P10635); assay: Inhibition of recombinant human CYP2D6 at 3 uM by fluorimetry; type: ADME; settings: recombinant enzyme
Cytochrome P450 3A4 [1] = molecular target: T1, Cytochrome P450 3A4 (Homo sapiens, UniProt P08684); assay: Inhibition of recombinant human CYP3A4 using 7-benzyloxy-4-trifluoromethyl coumarin as substrate at 3 uM by fluorimetry; type: ADME; settings: recombinant enzyme
CYP2C19 = CYP2C19 (Homo sapiens, UniProt P33261); assay: (§1) Inhibition of recombinant human CYP2C19 at 3 uM by fluorimetry; type: ADME; settings: recombinant human CYP2C19
CYP2C9 = CYP2C9 (Homo sapiens, UniProt P11712); assay: Inhibition of recombinant human CYP2C9 at 3 uM by fluorimetry; type: ADME
[2] = molecular target: T2, Prostaglandin E2 receptor EP4 subtype (Homo sapiens, UniProt P35408); assay: Antagonist activity at human EP4 receptor expressed in HEK293 cells assessed as inhibition of PGE2-induced cAMP accumulation by bead-based proximity assay; type: functional, cell-based
Cytochrome P450 3A4 [3] = molecular target: T1, Cytochrome P450 3A4; assay: Inhibition of recombinant human CYP3A4 using diethoxyfluorescein as substrate at 3 uM by fluorimetry; type: ADME; settings: recombinant enzyme
[4] = molecular target: T2, Prostaglandin E2 receptor EP4 subtype; assay: Displacement of [3H]-PGE2 from human EP4 receptor expressed in HEK293 cells; type: cell-based
[5] = molecular target: T2, Prostaglandin E2 receptor EP4 subtype; assay: Agonist activity at human EP4 receptor expressed in HEK293 cells assessed as potentiation of cAMP accumulation by bead-based proximity assay in absence of PGE2; type: functional, cell-based
Cytochrome P450 1A2 = molecular target: T3, Cytochrome P450 1A2 (Homo sapiens, UniProt P05177); assay: Inhibition of recombinant human CYP1A2 at 3 uM by fluorimetry; type: ADME; settings: recombinant enzyme
T3 sequence (P05177 whole entry): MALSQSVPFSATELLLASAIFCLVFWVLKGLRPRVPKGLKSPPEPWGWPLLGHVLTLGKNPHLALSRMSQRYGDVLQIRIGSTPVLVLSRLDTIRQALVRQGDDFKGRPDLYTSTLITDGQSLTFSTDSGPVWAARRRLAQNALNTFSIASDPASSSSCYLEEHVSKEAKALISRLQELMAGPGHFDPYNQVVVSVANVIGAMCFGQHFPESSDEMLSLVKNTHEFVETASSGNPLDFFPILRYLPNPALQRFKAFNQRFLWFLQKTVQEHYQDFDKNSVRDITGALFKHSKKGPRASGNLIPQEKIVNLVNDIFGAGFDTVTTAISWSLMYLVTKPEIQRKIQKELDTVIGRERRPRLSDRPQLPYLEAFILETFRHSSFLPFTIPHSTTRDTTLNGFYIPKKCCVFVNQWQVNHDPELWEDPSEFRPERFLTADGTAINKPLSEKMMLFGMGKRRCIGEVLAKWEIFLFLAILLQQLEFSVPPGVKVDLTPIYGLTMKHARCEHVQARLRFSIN

[6] = molecular target: Prostaglandin E2 receptor EP2 subtype (Homo sapiens, UniProt P43116); assay: Displacement of [3H]-PGE2 from human EP2 receptor expressed in HEK293 cells; type: cell-based
Cytochrome P450 2C19 = Cytochrome P450 2C19 (Homo sapiens, UniProt P33261); assay: as §1; type: ADME; settings: recombinant enzyme, 3 µM
[7] = molecular target: T2, Prostaglandin E2 receptor EP4 subtype; assay: Ratio of CJ-42794 IC50 to compound IC50 for human EP4 receptor expressed in HEK293 cells; type: cell-based

CYP2C9, sequence (P11712 whole entry): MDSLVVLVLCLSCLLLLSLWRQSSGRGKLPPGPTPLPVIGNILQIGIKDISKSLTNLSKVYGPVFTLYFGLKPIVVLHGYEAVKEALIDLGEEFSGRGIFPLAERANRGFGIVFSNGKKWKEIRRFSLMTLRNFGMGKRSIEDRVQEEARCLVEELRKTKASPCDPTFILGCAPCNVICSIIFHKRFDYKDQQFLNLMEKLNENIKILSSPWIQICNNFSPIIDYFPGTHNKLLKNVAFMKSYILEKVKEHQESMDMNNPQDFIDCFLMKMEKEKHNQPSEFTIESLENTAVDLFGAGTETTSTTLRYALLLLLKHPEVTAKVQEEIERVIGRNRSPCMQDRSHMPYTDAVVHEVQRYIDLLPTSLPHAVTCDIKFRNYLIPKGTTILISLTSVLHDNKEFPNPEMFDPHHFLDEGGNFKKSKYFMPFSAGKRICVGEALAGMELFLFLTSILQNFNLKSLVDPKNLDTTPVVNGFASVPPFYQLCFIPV
T1 sequence (P08684 whole entry): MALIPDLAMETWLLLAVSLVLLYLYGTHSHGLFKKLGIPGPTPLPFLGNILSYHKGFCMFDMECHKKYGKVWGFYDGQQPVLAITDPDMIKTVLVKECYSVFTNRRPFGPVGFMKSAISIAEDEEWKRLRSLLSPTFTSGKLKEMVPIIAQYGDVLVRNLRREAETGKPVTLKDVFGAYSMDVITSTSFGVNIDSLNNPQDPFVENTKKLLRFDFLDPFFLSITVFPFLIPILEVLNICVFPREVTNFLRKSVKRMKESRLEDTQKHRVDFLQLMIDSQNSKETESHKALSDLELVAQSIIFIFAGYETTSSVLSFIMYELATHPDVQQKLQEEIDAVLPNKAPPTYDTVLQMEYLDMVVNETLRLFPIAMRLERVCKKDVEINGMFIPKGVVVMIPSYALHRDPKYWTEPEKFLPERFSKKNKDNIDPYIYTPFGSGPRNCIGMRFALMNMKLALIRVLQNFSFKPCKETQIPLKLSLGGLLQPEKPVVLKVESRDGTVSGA
T2 sequence (P35408 whole entry): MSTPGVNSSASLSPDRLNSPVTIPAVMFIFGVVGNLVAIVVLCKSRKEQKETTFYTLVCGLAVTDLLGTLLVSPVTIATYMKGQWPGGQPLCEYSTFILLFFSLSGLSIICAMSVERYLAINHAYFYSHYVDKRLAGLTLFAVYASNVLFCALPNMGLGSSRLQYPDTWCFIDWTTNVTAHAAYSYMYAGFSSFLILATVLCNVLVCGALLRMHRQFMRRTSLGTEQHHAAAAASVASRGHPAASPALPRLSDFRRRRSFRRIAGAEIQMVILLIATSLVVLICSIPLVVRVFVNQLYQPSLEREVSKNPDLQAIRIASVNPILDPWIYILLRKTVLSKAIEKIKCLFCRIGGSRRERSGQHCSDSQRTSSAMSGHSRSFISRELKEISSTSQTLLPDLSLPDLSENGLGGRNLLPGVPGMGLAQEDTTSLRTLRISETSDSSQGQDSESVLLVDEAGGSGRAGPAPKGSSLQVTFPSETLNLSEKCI
Prostaglandin E2 receptor EP2 subtype, sequence (P43116 whole entry): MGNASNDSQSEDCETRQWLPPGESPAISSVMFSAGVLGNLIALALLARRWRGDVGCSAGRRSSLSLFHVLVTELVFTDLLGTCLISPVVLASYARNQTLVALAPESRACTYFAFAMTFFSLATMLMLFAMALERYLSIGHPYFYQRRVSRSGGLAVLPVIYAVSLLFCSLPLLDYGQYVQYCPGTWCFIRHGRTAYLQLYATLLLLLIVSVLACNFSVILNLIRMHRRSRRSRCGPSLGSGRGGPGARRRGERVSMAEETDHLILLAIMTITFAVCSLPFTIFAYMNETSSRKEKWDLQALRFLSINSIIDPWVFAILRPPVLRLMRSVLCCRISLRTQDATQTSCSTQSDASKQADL
Cytochrome P450 2D6, sequence (P10635 whole entry): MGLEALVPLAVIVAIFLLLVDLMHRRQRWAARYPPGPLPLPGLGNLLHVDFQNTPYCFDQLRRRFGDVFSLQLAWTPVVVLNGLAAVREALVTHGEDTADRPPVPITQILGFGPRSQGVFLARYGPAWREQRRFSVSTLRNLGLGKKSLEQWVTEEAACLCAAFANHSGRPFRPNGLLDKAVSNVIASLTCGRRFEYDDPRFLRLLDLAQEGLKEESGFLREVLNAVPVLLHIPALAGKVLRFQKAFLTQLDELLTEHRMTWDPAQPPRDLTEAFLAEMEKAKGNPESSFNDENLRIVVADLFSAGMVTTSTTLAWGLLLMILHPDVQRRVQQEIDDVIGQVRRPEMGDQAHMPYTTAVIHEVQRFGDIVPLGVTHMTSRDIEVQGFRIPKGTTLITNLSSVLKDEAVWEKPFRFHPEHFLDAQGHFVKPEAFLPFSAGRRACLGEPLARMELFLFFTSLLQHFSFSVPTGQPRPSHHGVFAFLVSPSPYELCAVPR
CYP2C19, sequence (P33261 whole entry): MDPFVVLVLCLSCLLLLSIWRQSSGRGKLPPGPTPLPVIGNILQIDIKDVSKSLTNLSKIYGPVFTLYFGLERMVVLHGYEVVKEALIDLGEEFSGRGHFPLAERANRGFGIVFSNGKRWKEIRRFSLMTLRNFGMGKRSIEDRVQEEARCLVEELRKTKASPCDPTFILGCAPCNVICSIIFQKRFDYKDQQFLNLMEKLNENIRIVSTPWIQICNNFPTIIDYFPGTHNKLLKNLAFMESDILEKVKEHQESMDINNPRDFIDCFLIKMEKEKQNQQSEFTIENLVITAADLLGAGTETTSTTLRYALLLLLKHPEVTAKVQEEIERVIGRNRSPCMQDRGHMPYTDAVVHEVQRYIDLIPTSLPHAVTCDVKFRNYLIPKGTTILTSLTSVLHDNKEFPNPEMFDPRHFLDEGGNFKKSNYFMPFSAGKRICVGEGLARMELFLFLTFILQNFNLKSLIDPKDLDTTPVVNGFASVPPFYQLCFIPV
Cytochrome P450 2C19, sequence (P33261 whole entry): as above

SMILES	inhibition (INH) (Cytochrome P450 2D6)	inhibition (INH) (Cytochrome P450 3A4 [1])	inhibition at 3 µM (CYP2C19) [%]	inhibition at 3 µM (CYP2C9) [%]	IC50 [2] [nM]	inhibition (INH) (Cytochrome P450 3A4 [3])	IC50 [4] [nM]	Activity [5]	inhibition (INH) (Cytochrome P450 1A2)	IC50 [6] [nM]	inhibition (INH) (Cytochrome P450 2C19)	Ratio IC50 [7]
C[C@H](NC(=O)c1cccc2c1Oc1ccc(C(F)(F)F)cc1CC2)c1ccc(C(=O)O)cc1	Not Active	Not Active	11	17	42	Not Active	63	inactive	Not Active	> 1000	–	–
C[C@H](NC(=O)c1cccc2c1Oc1cc(C(F)(F)F)ccc1CC2)c1ccc(C(=O)O)cc1	Not Active	Not Active	–	21	20	Not Active	2	inactive	Not Active	> 1000	Not Active	5
C[C@H](NC(=O)c1cc(Cl)ccc1Oc1ccc(F)cc1)c1ccc(C(=O)O)cc1	–	–	–	–	13	–	10	–	–	> 1000	–	–

Second part, the molecule after the results:

inhibition (INH) (Cytochrome P450 2D6)	inhibition (INH) (Cytochrome P450 3A4 [1])	inhibition at 3 µM (CYP2C19) [%]	inhibition at 3 µM (CYP2C9) [%]	IC50 [2] [nM]	inhibition (INH) (Cytochrome P450 3A4 [3])	IC50 [4] [nM]	Activity [5]	inhibition (INH) (Cytochrome P450 1A2)	IC50 [6] [nM]	inhibition (INH) (Cytochrome P450 2C19)	Ratio IC50 [7]	SMILES
Not Active	Not Active	–	11	1000	Not Active	4	inactive	Not Active	> 1000	Not Active	–	O=C(O)c1ccc(C2(NC(=O)c3cccc4c3Oc3cc(C(F)(F)F)ccc3CC4)CC2)cc1
Not Active	Not Active	13	26	34	Not Active	27	inactive	Not Active	> 1000	–	–	O=C(O)c1ccc(C2(NC(=O)c3cccc4c3Oc3ccc(C(F)(F)F)cc3CC4)CC2)cc1
